From patent US4582827A, “Pesticidal diphenylaziridines” (priority 1983, dated 1986)

What was measured:
[1] = test system: Salmonella typhimurium strains TA 98, TA 100, TA 1535, TA 1537, TA 1538, TA 1978; test: Ames assay (spot test), revertant colonies; type: cell-based; conditions: for Mean number of revertant colonies per plate, TA 98 +S9: strain TA 98, +S9; for Mean number of revertant colonies per plate, TA 98 -S9: strain TA 98, -S9; for Mean number of revertant colonies per plate, TA 100 +S9: strain TA 100, +S9; for Mean number of revertant colonies per plate, TA 100 -S9: strain TA 100, -S9; for Mean number of revertant colonies per plate, TA 1535 +S9: strain TA 1535, +S9; for Mean number of revertant colonies per plate, TA 1535 -S9: strain TA 1535, -S9; for Mean number of revertant colonies per plate, TA 1537 +S9: strain TA 1537, +S9; for Mean number of revertant colonies per plate, TA 1537 -S9: strain TA 1537, -S9; for Mean number of revertant colonies per plate, TA 1538 +S9: strain TA 1538, +S9; for Mean number of revertant colonies per plate, TA 1538 -S9: strain TA 1538, -S9; for Mean number of revertant colonies per plate, TA 1978 +S9: strain TA 1978, +S9; for Mean number of revertant colonies per plate, TA 1978 -S9: strain TA 1978, -S9; for mutagenicity: with and without S9 / mammalian liver enzymes
Protocol: This means that aziridine compounds, 1, 10, or 11, will not cause mutations in DNA arising from potential changes in frame shift and/or base pairing. Compounds 1, 10 and 11 were tested for mutagenic properties using the following experimental procedure.
Potential mutagenic and carcinogenic properties of the compounds were evaluated with standard Ames assay procedures (Ames et al, "Mutation Res.", 31, p. 347, 1975). This assay used strains of Salmonella typhimurium selected for sensitivity and specificity in being reverted from a histidine requirement back to prototrophy by a wide variety of mutagens. Potential changes in frameshift were evaluated using strains TA 98, TA 1537 and TA 1538, while changes in base pairing were detected using strains TA 100 and TA 1535. In addition, strain TA 1978 was used, in combination with TA 1538, to evaluate whether the agent killed bacteria by damage to DNA that could be repaired by this strain. Initially, the compounds were screened using the spot test, in which 1000 μgm of material dissolved in 10 μl of DNSO was applied to the middle of the plate.
Dose-response tests were not performed because the results were negative. All the tests were carried out in the presence and absence of an S9 rat liver preparation and contained a positive control (2-acetylaminofluorene,AAF) and a negative control (DMSO).

[2] = test system: tobacco hornworm larvae (newly ecdysed fifth-instar); test: Topical application to tobacco hornworm larvae; type: in vivo, Manduca sexta; conditions: for larvae killed: within 48 hr
Protocol: The test compounds were dissolved either in acetone or hexane and applied to the integument of the test insect with a micro applicator. Newly ecdysed fifth-instar tobacco hornworm larvae weighing between 1-1.5 g were used and toxicity data were obtained in the same way as previously described.

[3] = test system: tobacco hornworm (Manduca sexta) larvae; test: Tobacco hornworm growth and developmental responses to feeding on diets containing the compounds; type: in vivo; conditions: for larval death (words in table) / larval mortality / symptoms of larvae / time until all larvae dead: 5 mM in diet; for oral activity: diet, Example 2; for larval mortality (acute toxicity): in 24-72 hours; for larval mortality (acute toxicity) / time to 100% larval mortality: summary of Tables I and II
Protocol: The compounds produced and described in Example 1 were then tested for pesticidal activity against the tobacco hornworm (Manduca sexta). The screening procedure for these tests began with the larval stage and continued through the pupal and adult stages and finally evaluated egg production. The studies thus permitted the evaluation of the effects of the compounds over several subsequent developmental stages in the total life cycle of the insect, giving estimates of acute toxicity (insecticidalor larvicidal activity) as well as prolonged or delayed effects on development (growth regulation) and reproduction (chemosterilization). The latter are of special importance in conjunction with the integrated pest management approach to insect control.
The test compounds were incorporated into the artificial diet of tobacco hornworm larvae and their subsequent growth and developmental responses were monitored using the following parameters: larval mortality including determination of LD50 values, rate of larval development and weight gain, percent pupation, pupal weight and degree of deformities, percent adult emergence and measures of reproductive capacity such as the number of developed ooctyes, fecundity and fertility. The protocol for the screening tests has been developed over a number of years by Dahlman et al., Comp. Biochem. Physiol. 51A, 33, (1975); Comp. Biochem. Physiol., 52A, 105 (1975); Ent. Exp. et Appl., 22, 123 (1977); Palumbo and D. L. Dahlman, J. Econ. Entomol. 71, 674 (1978); D. L. Dahlman, Ent. Exp. et Appl., 24, 327 (1978).
Each treatment used 15 newly ecdysed fifth-instar larvae. Death of larvae within a few hours to several days of initial exposure was considered to be acute toxicity. However, the compounds may reduce the maximum size attained by larvae and/or may retard growth so that larvae require additional time to attain their maximum size. Developmental parameters subsequent to the feeding stage also may be affected. […] Mortality may occur in the pupal stage or emerging adults may have wrinkled wings or other deformities. The number of eggs produced by treated females may be reduced and/or unfertile. Although acute toxicity is desirable in the control of any insect, the delayed effects which result in poor survival and reduced reproductive capacity are significant factors in the long-range program of pest management systems.
Continuous cultures of M. sexta are maintained according to the procedures of Yamamoto, J. Econ. Entomol., 62, p. 1427 (1969). Ingredients of the diet formulation include sugar, casein, wheat germ oil, cholesterol, salt mixture, yeast, vitamins, antioxidants and fungal inhibitors, such as ascorbic acid, sorbic acid, formaldehyde and methyl-p-benzoate. All are incorporated into a liquid agar base which, when poured into holding pans, solidifies to form an adequate substrate upon which the insect larvae feed. Nearly any test material can be uniformly incorporated into such a diet. Thus, exposure to experimental compounds can be evaluated during all or any part of the larval stage. In addition, chronic or long-term effects in subsequent life stages can also be monitored.
The results from these studies, in which the 1,2-diphenylaziridines of Example 1 were incorporated singly into the diet of M. sexta at a concentration of 5 mM are presented in the following Table I.

H. virescens = test: Incorporation into H. virescens diet; type: in vivo, Heliothis virescens; conditions: as much as 20 mM in diet
Protocol: Compounds 1, 10, 11, 13 and 14 were incorporated into H. virescens diet in the same manner as M. Sexta. Diets containing as much as 20 mM of each compound had little effect on larval development time, pupal weight or time to adult emergence.

## Clc1ccccc1C1CN1c1ccc(Br)cc1 (centres unmarked) [Compound 1]
[1]
  Mean number of revertant colonies per plate, TA 98 +S9: 44.0 colonies per plate
  Mean number of revertant colonies per plate, TA 98 -S9: 32.7 colonies per plate
  Mean number of revertant colonies per plate, TA 100 +S9: 61.7 colonies per plate
  Mean number of revertant colonies per plate, TA 100 -S9: 25.3 colonies per plate
  Mean number of revertant colonies per plate, TA 1535 +S9: 15.0 colonies per plate
  Mean number of revertant colonies per plate, TA 1535 -S9: 17.3 colonies per plate
  Mean number of revertant colonies per plate, TA 1537 +S9: 13.3 colonies per plate
  Mean number of revertant colonies per plate, TA 1537 -S9: 7.5 colonies per plate
  Mean number of revertant colonies per plate, TA 1538 +S9: 26.7 colonies per plate
  Mean number of revertant colonies per plate, TA 1538 -S9: 12.0 colonies per plate
  Mean number of revertant colonies per plate, TA 1978 +S9: 189.0 colonies per plate
  Mean number of revertant colonies per plate, TA 1978 -S9: 207.3 colonies per plate
  mutagenicity: not mutagenic
[2]; 1000 μg/larva (800 ppm)
  larvae killed: 70%
[2]; 400 ppm topical
  developmental effects: delayed larval development, reduced maximum size and the number of resulting eggs
[3]; 1 mM in diet
  % Adult Emergence: 100%
  % Adults: 100%
  % Malformed Adults: 0%
  % Pupation: 100%
  Days to Max Wt: 5.8 ± .2 days
  Max Larval Wt: 7.94 g
  Mean No. of Eggs: 32 ± 9
  No. of female Adults: 10
  Total No. of Adults: 15
  larval weight: a slight reduction in larval weight
[3]; 1 mM in diet, relative to controls
  mean number of eggs: only half that of the controls
[3]; 2.5 mM in diet
  % Adult Emergence: 100%
  % Adults: 27%
  % Malformed Adults: 50%
  % Pupation: 27%
  Days to Max Wt: 6.2 ± 0.7 days
  Max Larval Wt: 4.99 g
  Mean No. of Eggs: 8 ± 9
  No. of female Adults: 2
  Total No. of Adults: 4
  malformed adults: a large percentage
  maximum larval weight and mean number of eggs: reduced maximum larval weight and the mean number of eggs
  percent pupation: lowered the percent pupation
[3]
  larval death (words in table): ALL DEAD BY SECOND DAY OF FEEDING
  larval mortality: all or nearly all larvae died
  symptoms of larvae: extreme agitation of larvae, oral and anal expulsion of fluids and ultimately, death
  time until all larvae dead: ≥ 48 h
  oral activity: good oral activity
  larval mortality (acute toxicity): 100%
  time to 100% larval mortality: 24 to 72 h
H. virescens
  effect on larval development time, pupal weight or time to adult emergence: little effect

## Clc1ccc(N2CC2c2ccccc2Cl)cc1 (centres unmarked) [Compound 11]
[1]
  Mean number of revertant colonies per plate, TA 98 +S9: 44.7 colonies per plate
  Mean number of revertant colonies per plate, TA 98 -S9: 27.3 colonies per plate
  Mean number of revertant colonies per plate, TA 100 +S9: 58.3 colonies per plate
  Mean number of revertant colonies per plate, TA 100 -S9: 28.0 colonies per plate
  Mean number of revertant colonies per plate, TA 1535 +S9: 15.3 colonies per plate
  Mean number of revertant colonies per plate, TA 1535 -S9: 16.3 colonies per plate
  Mean number of revertant colonies per plate, TA 1537 +S9: 13.7 colonies per plate
  Mean number of revertant colonies per plate, TA 1537 -S9: 9.7 colonies per plate
  Mean number of revertant colonies per plate, TA 1538 +S9: 26.0 colonies per plate
  Mean number of revertant colonies per plate, TA 1538 -S9: 13.3 colonies per plate
  Mean number of revertant colonies per plate, TA 1978 +S9: 196.0 colonies per plate
  Mean number of revertant colonies per plate, TA 1978 -S9: 209.7 colonies per plate
  mutagenicity: not mutagenic
[2]; 500 μg/larva (400 ppm)
  larvae killed: 80%
[2]; 250 ppm topical
  developmental effects: increased larval developmental time, reduced maximum weight and fewer numbers of eggs
[2]; Manduca sexta, 250 ppm topical, read-out: larval mortality
  mortality at 250 ppm, 250 µg/g: 30%
[2]; topical
  topical activity against the tobacco hornworm (comparison in words): less active than Compound 13
[3]; 1 mM in diet
  % Adult Emergence: 100%
  % Adults: 100%
  % Malformed Adults: 7%
  % Pupation: 100%
  Days to Max Wt: 5.9 ± .1 days
  Max Larval Wt: 8.29 g
  Mean No. of Eggs: 74 ± 22
  No. of female Adults: 4
  Total No. of Adults: 14
  larval weight: a slight reduction in larval weight
[3]; 2.5 mM in diet
  % Adult Emergence: 100%
  % Adults: 60%
  % Malformed Adults: 0%
  % Pupation: 60%
  Days to Max Wt: 7.7 ± 0.6 days
  Max Larval Wt: 6.77 g
  Mean No. of Eggs: 15 ± 7
  No. of female Adults: 7
  Total No. of Adults: 9
  maximum larval weight and mean number of eggs: reduced maximum larval weight and the mean number of eggs
  percent pupation: lowered the percent pupation
[3]
  larval death (words in table): ALL DEAD WITHIN 24 HR OF START OF TEST
  larval mortality: all or nearly all larvae died
  symptoms of larvae: extreme agitation of larvae, oral and anal expulsion of fluids and ultimately, death
  time until all larvae dead: ≤ 24 h
  oral activity: good oral activity
  larval mortality (acute toxicity): 100%
  time to 100% larval mortality: 24 to 72 h
H. virescens
  effect on larval development time, pupal weight or time to adult emergence: little effect
